In assay [1] the test system is GIST-T1 cells. The experiment in a line: Growth over time assay in GIST-T1. It is filed as cell-based, human. Particulars: all doses tested; day 21 cell count. An excerpt:
Cell Culture and Virus Production. All cell lines tested negative for mycoplasma infection on routine surveillance (MilliporeSigma Cat #MP0025-1KT). Human embryonic kidney (HEK) 293 FT (Thermo Fisher Scientific Cat #R70007, RRID: CVCL_6911) and the GIST cell lines GIST-T1 (Cosmo Bio Cat #PMC-GIST01-COS, RRID: CVCL_4976; KIT mutation in exon 11 Δ560-578), GIST430 (RRID: CVCL_7040; KIT mutation in exon 11 Δ560-576), GIST48B (RRID: CVCL_M441: KIT-independent), and GIST882 (RRID: CVCL_7044: KIT mutation in exon 13 K642E) were cultured in Dulbecco's modified Eagle's medium containing 10% FBS, 2 mM L-glutamine, […], and […]. KIT rescue cell lines, which are independent of the KIT enhancer, were generated as previously described (Hemming et al., Cancer Research 79:994-1009 (2019)). Non-commercial cell lines were obtained from the laboratory of Jonathan Fletcher between 2014 and 2016. KIT exons were sequenced to confirm the expected coding mutations and cell identity of GIST cell lines, and cells were thawed from original or derived stocks and used in the described experiments within approximately 3 months. Transfections were performed with X-tremeGene (Roche, Cat #6365809001). Lentiviral production was performed as previously described (Hemming et al., PLOS Biol. 6: e2571-15 (2008)). […]

For assay [2], the system named is GIST-T1 cells. The experiment in a line: RNA-seq and GSEA of drug-treated GIST-T1 cells. In kind it is cell-based, human. The method, then:
(§1) RNA-seq. Total RNA was isolated using a RNeasy Plus Kit (Qiagen Cat #74136), and concentration measured by Nanodrop (Thermo Fisher Scientific) and quality by TapeStation 4200 (Agilent). Library preparation was performed using the NEBNext Ultra II DNA Library Prep Kit (New England Biolabs Cat #E7645S). Paired-end 150 bp sequencing was performed on a NovaSeq 6000 (Illumina). RNA-seq data were aligned to hg19 using STAR (Dobin et al., Bioinformatics 29:15-21 (2012)) with expression quantification using Cufflinks (Trapnell et al., Nat. Biotechnol. 28:511-5 (2010)) to generate gene expression values in fragments per kilobase of transcript per million mapped reads (FPKM) units. Gene set enrichment analysis (GSEA, RRID: SCR_003199) (Subramanian et al., Proc. Natl. Acad. Sci. USA 102:15545-50 (2005)) was performed using Hallmark gene lists in the Molecular Signatures Database.

Assay [3] relates to GIST-T1 cell line xenografts. The experiment in a line: GIST-T1 cell line xenograft, tumor volume. In kind it is in vivo, mice. Particulars: for tumor volume relative to baseline: WM-1119 50 mg/kg gavage 3 times daily, one value per animal 1-6. An excerpt:
Xenograft Models. The PG27 patient derived xenograft was obtained from a patient undergoing clinically indicated surgery and following written informed consent to a Dana-Farber Cancer Institute IRB-approved research protocol. Cryopreserved tumor or the GIST-T1 cell line mixed 1:1 with matrigel were implanted subcutaneously into 6-week-old female nude mice (NU/NU; Charles River Laboratories). GIST-T1 tested negative for mycoplasma and rodent pathogens (Charles River Laboratories). For in vivo assessment of CRISPR/Cas9)-modified cell line growth. GIST-T1/Cas9 cells were treated with the indicated sgRNAs and selected with puromycin in vitro for 14 days prior to bilateral flank implantation. For drug treatment studies, singly engrafted mice were enrolled into treatment groups when tumors reached approximately 100-200 mm^3 in size, as measured by calipers and determined by the tumor volume equation: […]. […] WM-1119 (50 mg/kg gavage 3 times daily. 7 days per week). VTP-50469 (0.1% in chow) or combination treatments. […] Tumors were dissected and fixed in 10% formalin for corollary studies including H&E staining and immunohistochemistry of sectioned tumors. 4 μm sections were cut from fixed and embedded tumors and stained with Ki-67 (1:400, Cell Signaling Technology Cat #9027) and cleaved caspase-3 (1:250, Cell Signaling Technology Cat #9579). Reactions were developed using DAB (Cell Signaling Technology Cat #8059) or NovaRed (Vector Laboratories Cat #SK-4800) substrate kits per manufacturer recommendations. All procedures were conducted under protocols approved by the Institutional Animal Care and Use Committee at Dana-Farber Cancer Institute.

In assay [4] the test system is GIST-T1 xenografts. The experiment in a line: RNA-seq on GIST-T1 xenografts. It is filed as in vivo, mice. Conditions: 5 and 10 days of treatment. The procedure:
as §1, with “Database. Xenograft Models. […] VTP-50469 (0.1% in chow) or combination treatments.” for “Database.”

In assay [5] the test system is GIST cells. Nature of the assay: Apoptosis and cell death (Annexin V / 7-AAD, Guava Nexin). Conditions: 72-hour treatment, imatinib 0.5 μM. In kind it is cell-based, human. The procedure:
Cell cycle and apoptosis. […] Cells were trypsinized, washed in PBS and fixed in 70% ethanol. Propidium iodide at 25 μg/mL (Life Technologies Cat #P1304MP) and RNAse A at 0.2 mg/mL (Thermo Fischer Scientific Cat #EN0531) were used to stain nuclear DNA. Analysis was performed on a Guava easyCyte Flow Cytometer (Luminex Corporation), and single cells were assessed for nuclear content using Guava InCyte software. […] Non-apoptotic cells stain negative for Annexin V and 7-AAD, early apoptotic cells stain positive for Annexin V but negative for 7-AAD and late apoptotic and dead cells stain positive for both Annexin V and 7-AAD. Staining was assayed on a Guava easyCyte Flow Cytometer and data analyzed using Guava InCyte software.

For assay [6], the system named is GIST cells. The experiment in a line: Cell cycle analysis (propidium iodide, flow cytometry). It is filed as cell-based, human. Particulars: 72 hours imatinib. The method, then: Cell cycle and apoptosis. […] Cells were trypsinized, washed in PBS and fixed in 70% ethanol. Propidium iodide at 25 μg/mL (Life Technologies Cat #P1304MP) and RNAse A at 0.2 mg/mL (Thermo Fischer Scientific Cat #EN0531) were used to stain nuclear DNA. Analysis was performed on a Guava easyCyte Flow Cytometer (Luminex Corporation), and single cells were assessed for nuclear content using Guava InCyte software. Apoptosis and cell death were measured following 72 h of drug treatment using Guava Nexin Reagent (Luminex Corporation Cat #4500-0450) per manufacturer's recommendations. Non-apoptotic cells stain negative for Annexin V and 7-AAD, early apoptotic cells stain positive for Annexin V but negative for 7-AAD and late apoptotic and dead cells stain positive for both Annexin V and 7-AAD. Staining was assayed on a Guava easyCyte Flow Cytometer and data analyzed using Guava InCyte software.
On the technique in general: Flow cytometry measures light scatter and fluorescence of single cells or particles in a stream.

Several values for one entry are separate records, joined by “and”; a condition that tells them apart may be missing. Identical values can stand only once.

Turning to `CC(C)N(C[C@H]1O[C@@H](n2cnc3c(N)ncnc32)[C@H](O)[C@@H]1O)[C@H]1C[C@@H](CCc2nc3cc(C(C)(C)C)ccc3[nH]2)C1` [EPZ-5676], the “cellular proliferation of GIST-T1 compared to DMSO control or GIST48B” value in assay [1] is listed as “significantly reduced cellular proliferation”. For the same compound, in assay [2] (GIST-T1, 5 days), the “HAND1-regulated transcriptional programs (GSEA)” value was “significant disruption”. For the same compound, the “correlation of transcriptional changes with those of VTP-50469” value in assay [2] (GIST-T1, 5 days, RNA-seq) is given as “highly correlated”.

On to `O=C(NNS(=O)(=O)c1ccccc1F)c1cc(F)cc(-c2ccccn2)c1` [WM-1119, 2-fluoro-N′-(3-fluoro-5-(pyridin-2-yl)benzoyl)benzenesulfonohydrazide], for which the “tumor volume relative to baseline” value was 100 in assay [3] (treatment day 1 (baseline)); 175 and 211 and 114 and 133 and 87 and 152 in assay [3] (treatment day 5, 50 mg/kg); 480 and 322 and 157 and 173 and 131 and 206 in assay [3] (treatment day 8, 50 mg/kg); 518 and 368 and 287 and 160 and 145 and 260 in assay [3] (treatment day 12, 50 mg/kg); 527 and 429 and 327 and 181 and 163 and 328 in assay [3] (treatment day 14, 50 mg/kg); 876 and 501 and 511 and 180 and 268 and 277 in assay [3] (treatment day 19, 50 mg/kg). For the same compound, the “tumor volume relative to baseline” value in assay [3] (treatment day 22, 50 mg/kg) is 878 and 409 and 489 and 150 and 205 and 361; in assay [3] (treatment day 27, 50 mg/kg) it was 856 and 525 and 558 and 202 and 232 and 317; in assay [3] (treatment day 29, 50 mg/kg), 874 and 532 and 648 and 199 and 221 and 353. For the same compound, the “tumor growth compared to vehicle” value in assay [3] (end of 28-day treatment period) is listed as “significant reductions in tumor growth”. The “expression of GIST TFs” value in assay [2] (GIST-T1, 5 days) was “greatest global reduction in TF expression”. For the same compound, in assay [2] (GIST-T1 treated 1 and 5 days), the “global gene expression change (RNA-seq) versus DMSO” value is on record as “modestly altered expression of numerous genes”.

Consider `Cc1ccc(NC(=O)c2ccc(CN3CCN(C)CC3)cc2)cc1Nc1nccc(-c2cccnc2)n1` [imatinib], for which, in assay [4], the “KIT signaling-dependent transcripts TMEM100 and SPRY2 in xenografts” value is given as “preferentially reduced”; the “expression of genes regulated by HAND1 in xenografts” value is given as “decrease in the expression of genes regulated by HAND1”. The “apoptosis and cell death versus DMSO” value in assay [5] is “significant increase in early and late-phase apoptosis and cell death”. For the same compound, the cell cycle effect result in assay [6] is listed as “G0/G1 cell cycle arrest”.

The values above are taken from US20250041299A1, “THERAPEUTIC TARGETING OF GASTROINTESTINAL STROMAL TUMOR (GIST) BY DISRUPTING THE MENIN-MLL EPIGENETIC COMPLEX” (DANA-FARBER CANCER INSTITUTE, INC., priority 2021, published 2025).
